Data taken from publication PMC4911353, “Pharmacologic Inhibition of Host Phosphodiesterase-4 Improves Isoniazid-Mediated Clearance of Mycobacterium tuberculosis” (Frontiers in Immunology, 2016).

Test system: Mtb-infected mouse lungs
Assay: Genome-wide lung transcriptome (microarray, IPA network/GO analysis) of Mtb-infected mice
Assay type: in vivo
Set-up: SDEGs upregulated in TNF-α interaction network / SDEGs downregulated in TNF-α interaction network: unit not given here
[1] = TNF-a regulon network, Mtb-infected mouse lungs, CC-11050 treated
[2] = lungs of treated infected animals

`CCOc1cc([C@@H](CS(C)(=O)=O)N2Cc3cccc(NC(=O)C4CC4)c3C2=O)ccc1OC` [CC-11050, N-[2-[(1S)-1-(3-ethoxy-4-methoxyphenyl)-2-(methylsulfonyl)ethyl]-2,3-dihydro-3-oxo-1H-isoindol-4-yl]-(9Cl) cyclopropanecarboxamide] gave a PCK2 expression (TNF-a regulon network) of 0, a PCP4 expression (TNF-a regulon network) of 0 and a PCSK6 expression (TNF-a regulon network) of 0. It also gave a PDCD1 expression (TNF-a regulon network) of 0, a PDE2A expression (TNF-a regulon network) of 0 and a PDE8B expression (TNF-a regulon network) of 0. It also gave a PDGFA expression (TNF-a regulon network) of 0, a PDPN expression (TNF-a regulon network) of -1.216 and a PDZD2 expression (TNF-a regulon network) of 0. For the same molecule, the PECAM1 expression (TNF-a regulon network) was 0, the PENK expression (TNF-a regulon network) was 0 and the PIGR expression (TNF-a regulon network) was 0. The PKMYT1 expression (TNF-a regulon network) was 0, the PLA2G5 expression (TNF-a regulon network) was 0 and the PLA2G16 expression (TNF-a regulon network) was 0. The PLAUR expression (TNF-a regulon network) was 0, the PLIN1 expression (TNF-a regulon network) was 0 and the PLIN4 expression (TNF-a regulon network) was 0. It also gave a PLK3 expression (TNF-a regulon network) of 0, a PLSCR1 expression (TNF-a regulon network) of 0 and a PML expression (TNF-a regulon network) of 0. For the same molecule, the PPAP2A expression (TNF-a regulon network) was 1.247, the PPARA expression (TNF-a regulon network) was 0 and the PPARD expression (TNF-a regulon network) was 0. For the same molecule, the PPARG expression (TNF-a regulon network) was 0, the PPARGC1A expression (TNF-a regulon network) was 0 and the PPP1R3C expression (TNF-a regulon network) was 0. It also gave a PRKCD expression (TNF-a regulon network) of 0, a PRSS23 expression (TNF-a regulon network) of 0 and a PSMA2 expression (TNF-a regulon network) of 0. The PSMB8 expression (TNF-a regulon network) was 0, the PSMB9 expression (TNF-a regulon network) was 0 and the PSMB10 expression (TNF-a regulon network) was 0. It also gave a PSME1 expression (TNF-a regulon network) of 0, a PSME2 expression (TNF-a regulon network) of 0 and a PXMP2 expression (TNF-a regulon network) of 0. The PYCARD expression (TNF-a regulon network) was 0, the RAB32 expression (TNF-a regulon network) was 0 and the RARRES2 expression (TNF-a regulon network) was 0. The RASD1 expression (TNF-a regulon network) was 0, the RCAN1 expression (TNF-a regulon network) was 0 and the RCN3 expression (TNF-a regulon network) was 1.2203. It also gave an REL expression (TNF-a regulon network) of 0, an RETN expression (TNF-a regulon network) of 0 and an RFTN1 expression (TNF-a regulon network) of 0. The RFX5 expression (TNF-a regulon network) was 0, the RGS1 expression (TNF-a regulon network) was 0 and the RGS2 expression (TNF-a regulon network) was 0. It also gave an RGS4 expression (TNF-a regulon network) of 0, an RGS5 expression (TNF-a regulon network) of 0 and an RGS7 expression (TNF-a regulon network) of 0. The RGS14 expression (TNF-a regulon network) was 0, the RGS16 expression (TNF-a regulon network) was 0 and the RIPK1 expression (TNF-a regulon network) was 0. It also gave an RIPK2 expression (TNF-a regulon network) of 0, an RNASE2 expression (TNF-a regulon network) of 0 and an RNASE4 expression (TNF-a regulon network) of 0. It also gave an RND3 expression (TNF-a regulon network) of -1.216, an RNF149 expression (TNF-a regulon network) of 0 and an ROBO1 expression (TNF-a regulon network) of 1.1568. It also gave an RRM2 expression (TNF-a regulon network) of 0, an RUNX2 expression (TNF-a regulon network) of 0 and an S100A8 expression (TNF-a regulon network) of 0. For the same molecule, the SAA2 expression (TNF-a regulon network) was 0, the SAMD4A expression (TNF-a regulon network) was 0 and the SCNN1A expression (TNF-a regulon network) was 0. For the same molecule, the SCNN1B expression (TNF-a regulon network) was 0, the SCNN1G expression (TNF-a regulon network) was 1.211 and the SCUBE1 expression (TNF-a regulon network) was 0. For the same molecule, the SCUBE2 expression (TNF-a regulon network) was 1.331, the SDC2 expression (TNF-a regulon network) was 0 and the SELPLG expression (TNF-a regulon network) was 0. The SEMA3C expression (TNF-a regulon network) was 1.231, the SEPP1 expression (TNF-a regulon network) was 0 and the SERPINB9 expression (TNF-a regulon network) was 0. The SERPINE2 expression (TNF-a regulon network) was 0, the SERPINF1 expression (TNF-a regulon network) was 0 and the SHH expression (TNF-a regulon network) was 0. It also gave an SLC14A1 expression (TNF-a regulon network) of 0, an SLC1A2 expression [1] of 0 and an SLC1A3 expression [1] of 0. It also gave an SLC1A4 expression [1] of 0, an SLC2A6 expression [1] of 0 and an SLC5A8 expression [1] of 0. It also gave an SLC7A8 expression [1] of 0, an SLC20A1 expression [1] of 0 and an SLFN12L expression [1] of 0. It also gave an SMAD3 expression [1] of 0, an SMPD1 expression [1] of 0 and an SMPD2 expression [1] of 0. For the same molecule, the SMPDL3A expression [1] was 1.176, the SMURF1 expression [1] was 0 and the SMURF2 expression [1] was 1.4579. For the same molecule, the SNCG expression [1] was 0, the SND1 expression [1] was 0 and the SOCS3 expression [1] was 0. It also gave an SOD1 expression [1] of 1.19, an SP1 expression [1] of 0 and an SP3 expression [1] of 0. For the same molecule, the SPHK1 expression [1] was 0, the SQSTM1 expression [1] was 0 and the ST3GAL5 expression [1] was 0. The ST3GAL6 expression [1] was 0, the ST6GAL1 expression [1] was 0 and the STARD3 expression [1] was 0. The STAT4 expression [1] was 0, the STEAP4 expression [1] was 0 and the STMN1 expression [1] was -1.16. The SULT2A1 expression [1] was 0, the SYTL1 expression [1] was 0 and the Slco1a4 expression [1] was 0. For the same molecule, the TAP1 expression [1] was 0, the TAPBP expression [1] was 0 and the TBX21 expression [1] was 0. It also gave a TBXAS1 expression [1] of 0, a TDRD7 expression [1] of 0 and a TEK expression [1] of 0. For the same molecule, the TF expression [1] was 0, the THY1 expression [1] was 0 and the TIMP2 expression [1] was 0. The TIMP4 expression [1] was 0, the TJP1 expression [1] was 0 and the TLR7 expression [1] was 0. The TLR8 expression [1] was 0, the TM4SF1 expression [1] was 0 and the TNF expression [1] was 0. The TNFAIP2 expression [1] was 0, the TNFAIP3 expression [1] was 0 and the TNFAIP6 expression [1] was 0. For the same molecule, the TNFAIP8 expression [1] was 0, the TNFRSF11A expression [1] was -1.191 and the TNFRSF18 expression [1] was 0. The TNFSF10 expression [1] was 0, the TNFSF13B expression [1] was 0 and the TNIP1 expression [1] was 0. The TNN expression [1] was 0, the TPD52L2 expression [1] was 1.132 and the TPT1 expression [1] was 0. It also gave a TRADD expression [1] of 0, a TRAF1 expression [1] of 0 and a TRAF2 expression [1] of 0. The TRAF3 expression [1] was 0, the TRAFD1 expression [1] was 0 and the TREM2 expression [1] was 0. It also gave a TWIST2 expression [1] of 0, a TXNIP expression [1] of 1.1361 and a TYK2 expression [1] of 0. The Tgtp1/Tgtp2 expression [1] was 0, the UBD expression [1] was 0 and the UBE2H expression [1] was 0. It also gave a UCP1 expression [1] of 0, a VASP expression [1] of 0 and a VCAM1 expression [1] of 0. For the same molecule, the VIPR2 expression [1] was 0, the WHSC1 expression [1] was 0 and the WISP1 expression [1] was 0. The WLS expression [1] was 0, the WNT5A expression [1] was 0 and the WNT7A expression [1] was 0. It also gave a WTAP expression [1] of 0, a ZC3H12A expression [1] of 0 and a ZNF365 expression [1] of 0. For the same molecule, the “Genes downregulated in lung inflammation network” value [2] was “four”, the “Genes upregulated in lung inflammation network” value [2] was “nine” and the “SDEGs downregulated in TNF-α interaction network” value [2] was 8. For the same molecule, the “SDEGs upregulated in TNF-α interaction network” value [2] was 33, the “Il-17 interaction network genes whose expression was dampened” value (lungs of treated infected mice) was 87% and the “Genes significantly differentially expressed in Il-17 interaction network” value (lungs of treated infected mice, HmgB1, Il17F, Entpd1, HspB8) was “four”.
